Measurements: ChEMBL document CHEMBL4417636, “Small molecule inhibitors of pendrin ion exchange and pharmaceutical compositions” (2017)
Active and inactive are the calls of the source. The rule behind the calls is not given here.

How the values were obtained:
[1] = biological target: T1, Solute carrier family 12 member 2 (Homo sapiens) (UniProt P55011); test: Inhibition of NKCC1 in human bronchial epithelial cells assessed as effect on short-circuit current at 25 uM pre-incubated for 30 mins
T1 sequence (whole entry): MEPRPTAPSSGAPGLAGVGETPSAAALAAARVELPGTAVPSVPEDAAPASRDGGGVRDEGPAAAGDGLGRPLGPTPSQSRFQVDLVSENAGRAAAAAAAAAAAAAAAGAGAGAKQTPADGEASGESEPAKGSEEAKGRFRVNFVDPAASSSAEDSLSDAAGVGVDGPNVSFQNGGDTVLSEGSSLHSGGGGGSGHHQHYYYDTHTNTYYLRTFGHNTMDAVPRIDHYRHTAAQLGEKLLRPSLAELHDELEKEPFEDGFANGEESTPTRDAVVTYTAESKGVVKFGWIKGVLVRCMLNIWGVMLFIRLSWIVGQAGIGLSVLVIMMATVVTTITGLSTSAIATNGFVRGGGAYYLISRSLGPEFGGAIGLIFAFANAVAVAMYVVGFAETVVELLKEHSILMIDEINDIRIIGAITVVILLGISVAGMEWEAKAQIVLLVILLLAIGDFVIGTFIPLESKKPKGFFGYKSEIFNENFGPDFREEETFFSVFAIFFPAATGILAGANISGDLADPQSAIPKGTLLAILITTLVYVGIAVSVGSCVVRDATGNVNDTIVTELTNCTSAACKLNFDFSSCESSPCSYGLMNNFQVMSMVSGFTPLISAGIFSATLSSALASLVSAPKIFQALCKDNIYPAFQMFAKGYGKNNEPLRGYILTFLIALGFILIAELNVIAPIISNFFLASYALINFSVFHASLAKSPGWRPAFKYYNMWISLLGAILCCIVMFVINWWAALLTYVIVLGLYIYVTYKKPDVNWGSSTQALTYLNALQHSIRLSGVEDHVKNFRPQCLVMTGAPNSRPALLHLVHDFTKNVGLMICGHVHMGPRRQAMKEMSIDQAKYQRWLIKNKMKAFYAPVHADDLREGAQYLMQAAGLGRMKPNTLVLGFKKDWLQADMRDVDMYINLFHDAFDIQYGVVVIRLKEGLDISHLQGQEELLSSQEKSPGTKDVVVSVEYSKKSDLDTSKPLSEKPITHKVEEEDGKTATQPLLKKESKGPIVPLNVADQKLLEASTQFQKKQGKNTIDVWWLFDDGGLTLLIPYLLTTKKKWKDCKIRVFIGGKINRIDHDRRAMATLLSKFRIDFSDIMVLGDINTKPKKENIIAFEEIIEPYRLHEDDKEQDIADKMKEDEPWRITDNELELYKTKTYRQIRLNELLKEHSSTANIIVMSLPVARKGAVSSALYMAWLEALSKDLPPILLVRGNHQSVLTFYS

Mus musculus = test: Potentiation of 20 mg/kg, ip bid for 8 days furosemide-induced chronic diuretic action in CD1 mouse assessed as increase in urine volume at 10 mg/kg, ip measured at 3 hrs relative to control; type: functional
[2] = biological target: T2, Band 3 anion transport protein (Mus musculus) (UniProt P04919); test: Inhibition of mouse Slc4a1 expressed in COS7 co-expressing EYFP-HIF assessed as effect on SCN(-) gradient at 25 uM by YFP-based fluorescence quenching assay
T2 sequence (whole entry): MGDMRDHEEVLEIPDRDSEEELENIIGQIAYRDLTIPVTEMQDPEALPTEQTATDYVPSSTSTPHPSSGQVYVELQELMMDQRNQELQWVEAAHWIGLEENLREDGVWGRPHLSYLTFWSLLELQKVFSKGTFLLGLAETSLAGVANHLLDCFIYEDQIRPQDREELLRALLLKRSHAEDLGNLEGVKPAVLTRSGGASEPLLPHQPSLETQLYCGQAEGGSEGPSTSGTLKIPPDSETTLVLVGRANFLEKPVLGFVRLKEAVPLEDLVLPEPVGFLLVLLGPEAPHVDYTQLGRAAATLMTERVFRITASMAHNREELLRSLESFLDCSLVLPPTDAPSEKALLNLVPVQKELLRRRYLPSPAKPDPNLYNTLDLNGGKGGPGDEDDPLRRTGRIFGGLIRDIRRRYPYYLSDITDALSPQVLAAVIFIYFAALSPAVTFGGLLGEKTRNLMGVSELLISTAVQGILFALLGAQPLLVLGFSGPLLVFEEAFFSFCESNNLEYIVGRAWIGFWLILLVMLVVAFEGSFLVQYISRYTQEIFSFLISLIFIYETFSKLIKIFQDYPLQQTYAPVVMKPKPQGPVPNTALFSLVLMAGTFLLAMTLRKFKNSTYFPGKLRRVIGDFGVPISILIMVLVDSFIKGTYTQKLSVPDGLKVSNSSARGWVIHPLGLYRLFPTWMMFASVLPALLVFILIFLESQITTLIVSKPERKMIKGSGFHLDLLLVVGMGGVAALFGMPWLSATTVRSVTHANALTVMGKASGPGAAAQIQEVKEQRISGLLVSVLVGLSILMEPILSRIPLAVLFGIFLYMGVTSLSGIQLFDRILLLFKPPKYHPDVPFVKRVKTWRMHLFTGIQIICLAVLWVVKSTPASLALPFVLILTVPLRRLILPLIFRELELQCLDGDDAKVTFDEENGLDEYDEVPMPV

[3] = biological target: T3, Chloride anion exchanger (Mus musculus) (UniProt Q9WVC8); test: Inhibition of myc-tagged mouse Slc26a3 expressed in COS7 co-expressing EYFP-HIF assessed as effect on SCN(-) gradient at 25 uM by YFP-based fluorescence quenching assay
T3 sequence (whole entry): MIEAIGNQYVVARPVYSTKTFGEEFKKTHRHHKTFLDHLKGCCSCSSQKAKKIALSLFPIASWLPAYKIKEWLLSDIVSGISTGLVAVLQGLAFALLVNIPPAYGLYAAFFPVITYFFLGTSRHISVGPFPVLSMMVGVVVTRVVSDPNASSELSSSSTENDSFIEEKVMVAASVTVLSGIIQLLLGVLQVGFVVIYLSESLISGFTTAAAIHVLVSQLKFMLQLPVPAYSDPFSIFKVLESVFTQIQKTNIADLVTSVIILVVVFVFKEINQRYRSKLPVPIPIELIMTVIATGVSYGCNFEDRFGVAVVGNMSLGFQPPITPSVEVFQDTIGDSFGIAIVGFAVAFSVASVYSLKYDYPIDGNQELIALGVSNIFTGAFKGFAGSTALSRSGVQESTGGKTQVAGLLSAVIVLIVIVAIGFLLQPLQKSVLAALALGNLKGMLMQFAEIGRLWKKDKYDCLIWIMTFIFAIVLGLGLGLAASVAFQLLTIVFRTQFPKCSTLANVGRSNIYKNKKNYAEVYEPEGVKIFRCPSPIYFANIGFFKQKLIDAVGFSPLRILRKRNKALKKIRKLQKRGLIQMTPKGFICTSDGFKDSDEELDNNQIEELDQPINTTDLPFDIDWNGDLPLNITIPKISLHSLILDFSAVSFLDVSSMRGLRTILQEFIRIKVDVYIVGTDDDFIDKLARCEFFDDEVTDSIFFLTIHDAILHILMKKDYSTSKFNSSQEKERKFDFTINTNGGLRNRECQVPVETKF

SMILES | inhibition [1] | Activity (Mus musculus) | inhibition [2] | inhibition [3]
Cn1nc(COc2cccc(F)c2)c2c1CCN(C(=O)Nc1ccc(Cl)cc1)C2 | inactive | 60% | – | –
Cc1n[nH]c(-c2cc(S(=O)(=O)NC3CCCc4ccccc43)c(C)s2)c1C (centres undefined) | – | – | inactive | inactive
